Experimental data as given in patent publication EP0574992A1, “5-(1,2,4-Triazol-1-ylmethyl)-3H-isobenzofuran-1-one derivatives, their preparation and use as aromatase inhibitors” (GLAXO GROUP LIMITED, priority 1992, dated 1993).

Target: T1, human placental aromatase (Homo sapiens, UniProt P11511)
T1 construct: Human placental aromatase was assayed according to the method of Thomson and Siiteri; from tissue; host or cells: human placenta
T1 sequence (P11511 1-503): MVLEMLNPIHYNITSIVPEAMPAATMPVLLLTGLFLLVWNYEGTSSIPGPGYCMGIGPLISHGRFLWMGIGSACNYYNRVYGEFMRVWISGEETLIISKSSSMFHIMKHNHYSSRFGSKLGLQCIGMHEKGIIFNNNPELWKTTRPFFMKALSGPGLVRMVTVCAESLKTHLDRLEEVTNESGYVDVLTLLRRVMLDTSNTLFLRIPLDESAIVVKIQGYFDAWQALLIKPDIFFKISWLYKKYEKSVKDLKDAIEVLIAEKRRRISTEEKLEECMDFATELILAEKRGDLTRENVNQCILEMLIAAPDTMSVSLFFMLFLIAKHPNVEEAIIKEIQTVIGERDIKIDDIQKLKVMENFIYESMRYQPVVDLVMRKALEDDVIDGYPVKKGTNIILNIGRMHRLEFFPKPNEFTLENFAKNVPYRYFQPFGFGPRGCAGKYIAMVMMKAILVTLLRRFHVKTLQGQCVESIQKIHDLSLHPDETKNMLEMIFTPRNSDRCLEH
Assay: Human placental aromatase assay ([3H]-H2O release), in vitro
Type: biochemical
Details: 1 mM NADPH, read-out: Aromatase inhibitory activity - in vitro IC₅₀
Protocol: Aromatase inhibitory activity may be determined using human placental aromatase.
Human placental aromatase was assayed according to the method of Thomson and Siiteri, Hormone Res. (1979) 11:179-185, except that the assay buffer contained 1 mM NADPH instead of the NADPH-generating system. [³H]-H₂O, released as a by-product of aromatization, was separated from substrate using C18 mini-columns.

Row | IC50 | Structure (SMILES)
1 | 0.063 µM | CC1(C)OC(=O)c2ccc(C(c3ccc([N+](=O)[O-])cc3F)n3cncn3)cc21 (stereo not shown) [Example 2, 5-[(2-Fluoro-4-nitrophenyl)-1,2,4-triazol-1-ylmethyl]-3,3-dimethyl-3H-isobenzofuran-1-one]
2 | 0.083 µM | CC1(C)OC(=O)c2ccc(C(c3ccc(C#N)cc3F)n3cncn3)cc21 (stereo not shown) [Example 6, 4-[(3,3-Dimethyl-1-oxo-1,3-dihydro-isobenzofuran-5-yl)-1,2,4-triazol-1 - ylmethyl]-3-fluorobenzonitrile]

Continued, compound first:

Row | Structure (SMILES) | IC50
3 | CC1(C)OC(=O)c2ccc(C(c3c(F)cc([N+](=O)[O-])cc3F)n3cncn3)cc21 (racemic) [Example 1, 5-[(2,6-Difluoro-4-nitrophenyl)-1,2,4-triazol-1-ylmethyl]-3,3-dimethyl-3H-isobenzofuran-1-one] | 0.015 µM
4 | CC1(C)OC(=O)c2ccc(C(c3ccc(C#N)cc3)n3cncn3)cc21 (racemic) [Example 7, 4-[(3,3-Dimethyl-1-oxo-1,3-dihydro-isobenzofuran-5-yl)-1,2,4-triazol-1 - ylmethyl]-benzonitrile] | 0.073 µM
5 | CC1(C)OC(=O)c2ccc(C(c3c(F)cc(C#N)cc3F)n3cncn3)cc21 (stereo not shown) [Example 3, 4-[(3.3-Dimethyl-1-oxo-1,3-dihydro-isobenzofuran-5-yl)-1,2,4-triazol-1-ylmethyl]-3,5-difluorobenzonitrile] | 0.024 µM
6 | CC1(C)OC(=O)c2ccc(C(c3ccc([N+](=O)[O-])cc3)n3cncn3)cc21 (stereo not shown) [Example 5, 5-[(4-Nitrophenyl)-1,2,4-triazol-1-ylmethyl]-3,3-dimethyl-3H-isobenzofuran-1-one] | 0.051 µM

Test system: mouse
Assay: Acute toxicity study, single oral doses
Type: in vivo
Details: single doses up to 2g/kg p.o.

Row | Structure (SMILES) | Acute toxicity (tolerability)
7 | CC1(C)OC(=O)c2ccc(C(c3c(F)cc([N+](=O)[O-])cc3F)n3cncn3)cc21 (racemic) [Example 1, 5-[(2,6-Difluoro-4-nitrophenyl)-1,2,4-triazol-1-ylmethyl]-3,3-dimethyl-3H-isobenzofuran-1-one] | well tolerated
